Results as given in article PMC10675340, “Preparation, Radiolabeling with ^68Ga/^177Lu and Preclinical Evaluation of Novel Angiotensin Peptide Analog: A New Class of Peptides for Breast Cancer Targeting” (Pharmaceuticals, 2023).
Read-outs that look alike come from different tables or passages of the source. Where a SMILES comes first, the peptide text is derived from it. [ ]: non-standard residue; d: D form. The star is where a group is joined. DOTA = O=C(O)CN1CCN(CC(=O)O)CCN(CC(=O)*)CCN(CC(=O)O)CC1; βAla = NCCC(=O)O

What was measured:
[1] = In vivo biodistribution in normal Balb/c mice; design: species or system mouse; conditions: female, mouse, iv, total radioactivity, normal Balb/c mice, i.v. tail vein, mean ± SD, n = 4-6
Procedure: (§1) The in vivo biodistribution of ^68Ga-labeled AngII peptide analog was carried out in female Balb/c mice, at various time points, to observe the uptake in the normal tissues and organs and find the excretion route of the radiolabeled peptides. […] Low uptake and retention of the radiopeptide in the liver varying from 1.54 ± 0.28% ID/g at 45 min to 0.48 ± 0.17% ID/g at 2 h p.i. is probably related to the high hydrophilicity (log p = −0.55 ± 0.11) of the ^68Ga-labeled AngII peptide analog. […] The efficient clearance from the kidneys is possibly associated with the urinary excretion of the radiopeptide. […] The low amount of uptake in the bone (up to 0.37 ± 0.14% ID/g) (Table 2) indicates the minimal breakdown of the ^68Ga-labeled AngII peptide complex in vivo combined with the minor release of free ^68Ga. These findings are in agreement with the high in vitro metabolic stability observed in the human plasma for the radiolabeled AngII peptide. The accumulation in the extremely vascular organ lungs was also low (up to 1.11 ± 0.37% ID/g) signifying a low trapping by the lungs.
(§2) Approval from the Institutional Animal Care and Use Committee was obtained for the animal protocol used. Additionally, strict international regulations govern the safe and proper use of laboratory animals employed during animal experiments. In vivo, biodistribution was performed on healthy female mice according to the methods essentially described previously. In summary, Balb/c mice (n = 5 per time point, body mass 20–25 g) at 45 min and 2 h were administered with the HPLC-purified AngII peptide (~1 µg, 100 µL, 0.925–1.85 MBq; 25–50 µCi) via lateral tail vein injection. At the specified time points, the animals were sacrificed by cervical dislocation. A fraction of the blood was collected from cardiac puncture. Urine was also collected and measured with the bladder contents. Major organs, such as the lungs, pancreas, stomach, liver, heart, kidneys, and intestines were isolated, weighed, and measured for radioactivity. The uptake values of the radiolabeled peptide in different organs are expressed as the percent injected dose per gram (% ID/g) of tissue/organ. The radioactivity in the urine with bladder contents is shown as the percent of the injected dose per organ (% ID/organ). To calculate the injected dose, a standard (20-fold dilution of injected dose) was prepared and counted together with animal tissue samples.

Balb/c mice = experiment: In vivo biodistribution in normal Balb/c mice; design: species or system mouse; conditions: normal Balb/c mice, 45 min and 2 h p.i.
Procedure: as §1, §2

[2] = In vivo receptor-blocking study in nude mice bearing MDA-MB-231 xenografts; conditions: mouse, total radioactivity, nude mice with MDA-MB-231 xenografts, 2 h p.i., co-injected ~100 µg unlabeled AngII peptide analog, mean ± SD
Procedure: (§3) To validate the selectivity of the AngII peptide analog for its intended target AT1 receptors, we performed a receptor-blocking assay by administering a blocking dose of ~100 μg of unlabeled AngII peptide premixed with the radiolabeled AngII peptide analog at 2 h p.i. […] Furthermore, a varying influence pattern of the pharmacological receptor blocking dose was detected mainly in the intestines, heart, and kidneys as the uptake in these organs was reduced to variable degrees depending on the degree of AT1 receptor expression by these organs and tissues (Table 2).
(§4) For the receptor-blocking study, an additional group of mice was injected with the radiolabeled AngII peptide premixed with unlabeled AngII peptide (~100 μg) to serve as a receptor-blocking agent. In vivo, biodistribution and blocking studies were performed at 2 h p.i. as stated before.

AT1 receptor = experiment: as above; conditions: mouse, total radioactivity, 2 h p.i., co-injected ~100 µg unlabeled AngII peptide analog, mean ± SD
Procedure: as §3, §4

athymic nude mice = experiment: In vivo metabolic stability (radio-HPLC of mouse urine); conditions: urine collected at 2 h p.i.
Procedure: Athymic nude mice were utilized for the metabolism study to determine the potential radio-metabolites in the urine. An aliquot of urine sample was collected by manual void at the time of sacrifice and analyzed by radio-HPLC. […] The results signified that most of the radioactivity (>80%) was still bound to the ^68Ga-AngII peptide analog (Figure 2). There were no major metabolites detected in the urine sample at 2 h p.i. A small hydrophilic metabolite peak was found at about 4 min for the urine sample. This finding confirms that the ^68Ga-AngII peptide analog is not prone to fast in vivo disintegration and is also in agreement with the results of high in vitro complex strength.
To determine the radio-metabolites of the ^68Ga-labeled AngII peptide analog, an aliquot of urine sample was collected by manual void at the time of sacrifice and mixed with an equal volume of CH3CN. The mixture was centrifuged at 7000 rpm for 5 min. The resulting supernatant was collected and passed through a 0.20 μm Millex-LG filter unit to remove any precipitate or foreign particles and then analyzed by radio-HPLC.

Q: With `CC[C@H](C)[C@H](NC(=O)[C@H](Cc1ccc(O)cc1)NC(=O)[C@@H](NC(=O)[C@H](CCCNC(=N)N)NC(=O)[C@H](CC(=O)O)NC(=O)CCNC(=O)[C@H](CCCCN)NC(=O)CN1CCN(CC(=O)O)CCN(CC(=O)O)CCN(CC(=O)O)CC1)C(C)C)C(=O)N[C@@H](Cc1c[nH]cn1)C(=O)N1CCC[C@H]1C(=O)N[C@@H](Cc1ccccc1)C(=O)N[C@@H](Cc1c[nH]c2ccccc12)C(=O)N[C@@H](CCCCN)C(=O)N[C@@H](Cc1ccc(O)cc1)C(N)=O` [^68Ga-DOTA-AngII peptide, metal not drawn] ({DOTA}-K[βAla]DRVYIHPFWKY-NH2) as the molecule, how does the tissue uptake at 0.75 h ([1]; blood, 45 min p.i., read-out: Blood uptake) read?
A: 0.85 ± 0.24 %ID/g

Q: And the tissue uptake at 2 h ([1]; blood, 2 h p.i., read-out: Blood uptake)?
A: 0.61 ± 0.15 %ID/g

Q: What about the tissue uptake at 0.75 h ([1]; heart, 45 min p.i., read-out: Heart uptake) of the same molecule?
A: 1.39 ± 0.51 %ID/g

Q: And the tissue uptake at 2 h ([1]; heart, 2 h p.i., read-out: Heart uptake)?
A: 0.99 ± 0.26 %ID/g

Q: What about the tissue uptake at 0.75 h ([1]; intestines without contents, 45 min p.i., read-out: Intestines uptake (portion without contents)) of the same molecule?
A: 1.45 ± 0.39 %ID/g

Q: What about the tissue uptake at 2 h ([1]; intestines without contents, 2 h p.i., read-out: Intestines uptake (portion without contents)) of the same molecule?
A: 1 ± 0.28 %ID/g

Q: And the tissue uptake at 0.75 h ([1]; kidneys, 45 min p.i., read-out: Kidneys uptake)?
A: 9.95 ± 3.39 %ID/g

Q: What about the tissue uptake at 2 h ([1]; kidneys, 2 h p.i., read-out: Kidneys uptake) of the same molecule?
A: 3.78 ± 1.46 %ID/g

Q: What about the tissue uptake at 0.75 h ([1]; liver, 45 min p.i., read-out: Liver uptake) of the same molecule?
A: 1.54 ± 0.28 %ID/g

Q: What about the tissue uptake at 2 h ([1]; liver, 2 h p.i., read-out: Liver uptake) of the same molecule?
A: 0.48 ± 0.17 %ID/g

Q: And the tissue uptake at 0.75 h ([1]; lungs, 45 min p.i., read-out: Lungs uptake)?
A: 1.11 ± 0.37 %ID/g

Q: And the tissue uptake at 2 h ([1]; lungs, 2 h p.i., read-out: Lungs uptake)?
A: 0.6 ± 0.2 %ID/g

Q: What about the tissue uptake at 2 h ([1]; muscle/bone, 2 h p.i., read-out: Muscle/bone uptake) of the same molecule?
A: 0.28 ± 0.1 %ID/g

Q: What about the tissue uptake at 0.75 h ([1]; pancreas, 45 min p.i., read-out: Pancreas uptake) of the same molecule?
A: 0.5 ± 0.11 %ID/g

Q: And the tissue uptake at 2 h ([1]; pancreas, 2 h p.i., read-out: Pancreas uptake)?
A: 0.33 ± 0.06 %ID/g

Q: What about the tissue uptake at 0.75 h ([1]; spleen, 45 min p.i., read-out: Spleen uptake) of the same molecule?
A: 0.51 ± 0.1 %ID/g

Q: What about the tissue uptake at 2 h ([1]; spleen, 2 h p.i., read-out: Spleen uptake) of the same molecule?
A: 0.31 ± 0.09 %ID/g

Q: And the tissue uptake at 0.75 h ([1]; stomach, 45 min p.i., read-out: Stomach uptake)?
A: 1.06 ± 0.41 %ID/g

Q: What about the tissue uptake at 2 h ([1]; stomach, 2 h p.i., read-out: Stomach uptake) of the same molecule?
A: 0.81 ± 0.23 %ID/g

Q: What about the dose excreted at 0.75 h ([1]; urine with bladder contents, 45 min p.i., read-out: Urine + Bladder (urinary excretion)) of the same molecule?
A: 67 ± 8.9%

Q: What about the dose excreted at 2 h ([1]; urine with bladder contents, 2 h p.i., read-out: Urine + Bladder (urinary excretion)) of the same molecule?
A: 80 ± 12.9%

Q: And the “Radioactivity in the whole intestines (with contents)” value (Balb/c mice)?
A: up to 2.97 % ID/g

Q: What about the tissue uptake at 2 h ([2]; blood, intravenous, read-out: Blood uptake, blocked) of the same molecule?
A: 0.85 ± 0.2 %ID/g

Q: What about the tissue uptake at 2 h ([2]; liver, read-out: Liver uptake, blocked) of the same molecule?
A: 0.85 ± 0.24 %ID/g

Q: What about the tissue uptake at 2 h ([2]; lungs, intravenous, read-out: Lungs uptake, blocked) of the same molecule?
A: 0.89 ± 0.35 %ID/g

Q: And the tissue uptake at 2 h ([2]; pancreas, read-out: Pancreas uptake, blocked)?
A: 0.54 ± 0.12 %ID/g

Q: What about the tissue uptake at 2 h ([2]; spleen, intravenous, read-out: Spleen uptake, blocked) of the same molecule?
A: 0.35 ± 0.09 %ID/g

Q: What about the tissue uptake at 2 h ([2]; stomach, read-out: Stomach uptake, blocked) of the same molecule?
A: 0.49 ± 0.18 %ID/g

Q: What about the tissue uptake at 2 h (AT1 receptor; heart, intravenous, nude mice with MDA-MB-231 xenografts, read-out: Heart uptake, blocked) of the same molecule?
A: 0.23 ± 0.1 %ID/g

Q: And the tissue uptake at 2 h (AT1 receptor; intestines without contents, nude mice with MDA-MB-231 xenografts, read-out: Intestines uptake (portion without contents), blocked)?
A: 0.8 ± 0.2 %ID/g

Q: And the tissue uptake at 2 h (AT1 receptor; kidneys, intravenous, nude mice with MDA-MB-231 xenografts, read-out: Kidneys uptake, blocked)?
A: 2.01 ± 0.87 %ID/g

Q: And the tissue uptake at 2 h (AT1 receptor; muscle/bone, nude mice with MDA-MB-231 xenografts, read-out: Muscle/bone uptake, blocked)?
A: 0.24 ± 0.1 %ID/g

Q: And the tissue uptake at 2 h (AT1 receptor; tumor (MDA-MB-231 xenograft), MDA-MB-231 tumor in nude mice, read-out: Tumor uptake, blocked)?
A: 0.6 ± 0.27 %ID/g

Q: And the dose excreted at 2 h (AT1 receptor; urine with bladder contents, intravenous, nude mice with MDA-MB-231 xenografts, read-out: Urine + Bladder (urinary excretion), blocked)?
A: 43.5 ± 7.9%

Q: What about the “Radioactivity still bound to the radiopeptide in urine” value (athymic nude mice) of the same molecule?
A: > 80%
